Key:
[1] = biological target: interaction between PD-1 and PD-L1 (Homo sapiens (Human), UniProt Q9NZQ7); test: PD1-PDL1 HTRF binding activity test; details: Cisbio PD-1/PD-L1 binding assay kit
Experimental: I. PD1-PDL1 HTRF Binding Activity Test
The effect of compounds of the examples of the present invention on the interaction between PD-1 and PD-L1 was determined by the PD-1/PD-L1 binding assay kit from Cisbio (#64ICP01PEG or 64ICP01PEH). The detailed experimental process was as follows: • 1) Pre-diluted compound solution, 4 μL of Tag1-PD-L1 and 4 μL of Tag2-PD1 were added to each well of a 384-well plate: • 2) After the mixture was incubated at room temperature for 15 min, 5 μL of anti-Tag1-Eu3+ antibody and 5 μL of anti-Tag2-XL665 antibody were then added; • 3) After incubated for 2 hrs at room temperature or overnight at 4° C., plates were read on Envision of Pelkin Elmer; and readings at 665 nm and 620 nm were recorded, and the ratio of the two readings was taken as a reading for each well; • 4) The reading of each well after compound treatment was compared with the reading of DMSO treated wells to obtain the percent inhibition of the compound; • 5) IC50 values of compounds and positive compounds of the examples of the present invention were determined by non-linear regression analysis of percent inhibition at different compound concentrations. II. Jurkat Reporter Gene Cellular Assay

[2] = Jurkat reporter gene cellular assay; assay type: cell-based; details: Homo sapiens; Jurkat/NF-κB-luc/PD1 + Raji-PD-L1 coculture, OKT3 1 μg/mL, 6 hrs, activation fold; read-out: Cell Activity EC50
Experimental: The effect of compounds of the examples of the present invention and positive compounds on the interaction between PD-1 and PD-L1 expressed on cell surfaces, and the related influence on T cell functions, were determined by a Jurkat reporter gene cellular assay.
Briefly, the reporter gene plasmid of NF-κB-luc and the plasmid of human PD-1 were transfected into Jurkat cells to establish a stably transfected cell line capable of stably expressing both PD-1 and NF-κB-Luc reporter genes; the expression level of PD-1 on the cell surface was confirmed by flow cytometry; and the expression of the reporter gene was confirmed via the response of the reporter gene stimulated by OKT-3 and Raiji cells.
In addition, the plasmid of human PD-L1 was transfected into Raji cells to obtain a cell line capable of stably expressing PD-L1. Jurkat/NF-κB-luc/PD1 cells and Raji-PD-L1 cells were then cocultured and stimulated with OKT-3. On this basis, the compounds were added, and the enhancement of the signal pathway of T cell activation by the inhibitory effect of the compounds on the interaction between PD-1 and PD-L1 was evaluated by readings of reporter gene responses. The specific experimental process was as follows: • 1) 30 μL of compound or antibody solution was added to each well of a white 96-well plate (coming, 3610) at different diluted concentrations, and 10 μL of OKT3 (Biolegend, 317326) was then added (the final concentration of OKT3: 1 μg/mL); • 2) 20 μL of Raji-PD-L1 cell suspension was added to each well with 5*10^4 cells for each well, and was incubated in an incubator for 20 min: • 3) 20 μL of Jurkat/NF-κb-luc/PD-1 cell suspension was added to each well with 5*10^4 cells for each well, and well mixed, and 6 hrs later, Bright-glo (Promega, E2620) was applied and plates were read on Envision; • 4) The reading of each well treated with the compound was compared with the reading of each well treated with DMSO to obtain the activation fold of the compound; • 5) EC50 values of compounds and positive compounds of the examples of the present invention were determined by non-linear regression analysis of activation folds at different compound concentrations.

[3] = Pharmacokinetic assay in mice; assay type: in vivo; details: male, mouse; ICR mice, PO 10 mg/kg, plasma
Experimental: III. Pharmacokinetic Assay in Mice
The purpose of this study was to study the pharmacokinetic behaviors of some compounds of the present invention, and administration routes were: per oral administration (PO) to ICR mice at a dose of 10 mg/kg.
The compounds used in this test came from the compounds of the specific examples of the present invention.
ICR mice, male, N=3, with the original source of Shanghai Sippr-BK Laboratory Animal Co. Ltd.
2.3 Preparation and Administration of Drug
The compounds were weighed, and dissolved in a solvent of 0.5% SDS+0.5% CMCNa. The mixture solutions were mixed well by shaking and ultrasonic treatment to obtain colorless clear solutions. The solutions were orally administered to nine mice after an overnight fast. The dosage of administration was 10 mg/kg.
• 1) With about 90 μL/time point, blood was drawn from the submaxillary vein, and heparin sodium was added for anticoagulation. The blood samples were placed onto the ice, and were centrifuged (centrifugation conditions: 8000 r/min, 6 min, 2-8° C.) within 1 hr to obtain plasmas. • 2) The time points for blood sampling were at 0 hr, 0.25 hr, 0.5 hr, 1 hr, 2 hrs, 4 hrs, 6 hrs, 8 hrs and 24 hrs after administration. The samples were stored in a refrigerator at −20° C. • 3) 40 μL of plasma sample was added to 160 μL of cold acetonitrile containing an internal standard, and the mixture solution was vortexed for 3 min and centrifuged at 11,000 r/min for 5 min. • 4) 100 μL of supernate was taken and added to 100 μL of water, and 5 μL of the sample was taken and analyzed by LC/MS/MS.
The compounds from some representative examples of the present invention were administered and tested according to the above method, and their prototype compounds were detected.

interaction between PD-1 and PD-L1, sequence (Q9NZQ7 19-238): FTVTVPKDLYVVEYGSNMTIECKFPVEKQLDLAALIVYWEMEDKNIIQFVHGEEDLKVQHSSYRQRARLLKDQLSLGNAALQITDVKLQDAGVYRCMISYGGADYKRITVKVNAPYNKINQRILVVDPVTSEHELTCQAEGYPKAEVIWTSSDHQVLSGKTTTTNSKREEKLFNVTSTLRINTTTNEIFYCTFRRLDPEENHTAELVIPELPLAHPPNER

| Compound | EC50 [2] | further results |
| --- | --- | --- |
| CCN1CCc2cc(C(=O)Nc3cccc(-c4cccc(NC(=O)c5nc6c(n5C)CCN(CCC57CCC(C(=O)O)(CC5)C7)C6)c4Cl)c3Cl)ncc2C1 [Example 3, 4-(2-(2-((2,2′-dichloro-3′-(7-ethyl-5,6,7,8-tetrahydro-2,7-naphthyridine-3-carboxamido)-[1,1′-biphenyl]-3-yl)carbamoyl)-1-methyl-1,4,6,7-tetrahydro-5H-imidazo[4,5-c]pyridin-5-yl)ethyl)bicyclo[2.2.1] heptane-1-carboxylic acid] | 47.6 nM | IC50 [1]: 0.174 nM |
| Cn1c(C(=O)Nc2cccc(-c3cccc(NC(=O)c4cc5c(cn4)CN(C4COC4)CC5)c3Cl)c2Cl)nc2c1CCN(CCC13CCC(C(=O)O)(CC1)C3)C2 [Example 11, 4-(2-(2-((2,2′-dichloro-3′-(7-(oxetan-3-yl)-5,6,7,8-tetrahydro-2,7-naphthyridine-3-carboxamido)-[1,1′-biphenyl]-3-yl)carbamoyl)-1-methyl-1,4,6,7-tetrahydro-5H-imidazo[4,5-c]pyridin-5-yl)ethyl)bicyclo [2.2.1]heptane-1-carboxylic acid] | 54.4 nM | IC50 [1]: 0.109 nM |
| CC(C)N1CCc2cc(C(=O)Nc3cccc(-c4cccc(NC(=O)c5cc(C6CC6)c(CN6CCCC[C@H]6C(=O)O)cn5)c4Cl)c3Cl)ncc2C1 [Example 32, (S)-1-((4-cyclopropyl-6-((2,2′-dichloro-3′-(7-isopropyl-5,6,7,8-tetrahydro-2,7-naphthyridine-3-carboxamido)-[1,1′-biphenyl]-3-yl)carbamoyl)pyridin-3-yl)methyl)piperidine-2-carboxylic acid] | 25 nM | AUC(0-t) [3]: 10200 ng·h/mL; Cmax [3]: 2570 ng/mL; MRT [3]: 2.9 h; Tmax [3]: 0.5 h; half-life [3]: 1.3 h |
| CC(C)N1CCc2cc(C(=O)Nc3cccc(-c4cccc(NC(=O)c5ccc6c(n5)CN(CCC57CCC(C(=O)O)(CC5)C7)CC6)c4Cl)c3Cl)ncc2C1 [Example 68, 4-(2-(2-((2,2′-dichloro-3′-(7-isopropyl-5,6,7,8-tetrahydro-2,7-yridine-3-carboxamido)-[1,1′-biphenyl]-3-yl)carbamoyl)-5,8-dihydro-1,7-naphthyridin-7(6H)-yl)ethyl)bicyclo[2.2.1]heptane-1-carboxylic acid] | 178 nM |  |
| CC(C)N1CCc2cc(/C(F)=C/c3cccc(-c4cccc(Nc5nccc6cc(CN[C@H](CO)C(=O)O)cnc56)c4Cl)c3Cl)ncc2C1 [Example 71, (Z)-((8-((2,2′-dichloro-3′-(2-fluoro-2-(7-isopropyl-5,6,7,8-tetrahydro-2,7-naphthyridin-3-yl)vinyl)-[1,1′-biphenyl]-3-yl)amino)-1,7-naphthyridin-3-yl)methyl)-D-serine] | 772 nM |  |
| CCOC(=O)[C@@H](CO)NCc1cnc2c(Nc3cccc(-c4cccc(/C=C(\F)c5cc6c(cn5)CN(C[C@@H](C)O)CC6)c4Cl)c3Cl)nccc2c1 [Example 72, ethyl ((8-((2,2′-dichloro-3′-((Z)-2-fluoro-2-(7-((R)-2-hydroxypropyl)-5,6,7,8-tetrahydro-2,7-naphthyridin-3-yl)vinyl)-[1,1′-biphenyl]-3-yl)amino)-1,7-naphthyridin-3-yl)methyl)-D-serinate] | 1430 nM |  |
| O=C1CC[C@@H](CNCc2cnc3c(Nc4cccc(-c5cccc(/C=C(\F)c6cc7c(cn6)CN(CCC68CCC(C(=O)O)(CC6)C8)CC7)c5Cl)c4Cl)nccc3c2)N1 [Example 75, (S,Z)-4-(2-(6-(2-(2,2′-dichloro-3′-((3-((((5-oxopyrrolidin-2-yl)methyl)amino)methyl)-1,7-naphthyridin-8-yl)amino)-[1,1′-biphenyl]-3-yl)-1-fluorovinyl)-3,4-dihydro-2,7-naphthyridin-2(1H)-yl)ethyl)bicyclo [2.2.1]heptane-1-carboxylic acid] | 1130 nM |  |

Continued by falling EC50 [2], values first:

| EC50 [2] | Compound | further results |
| --- | --- | --- |
| 7640 nM | CCOC(=O)[C@@H](CO)NCc1cnc2c(Nc3cccc(-c4cccc(/C=C(\F)c5cc6c(cn5)CN(C(C)C)CC6)c4Cl)c3Cl)nccc2c1 [Example 73, ethyl (Z)-((8-((2,2′-dichloro-3′-(2-fluoro-2-(7-isopropyl-5,6,7,8-tetrahydro-2,7-naphthyridin-3-yl)vinyl)-[1,1′-biphenyl]-3-yl)amino)-1,7-naphthyridin-3-yl)methyl)-D-serinate] |  |
| 1400 nM | Cc1c(/C=C(\F)c2cc3c(cn2)CN(CCC24CCC(C(=O)O)(CC2)C4)CC3)cccc1-c1cccc(Nc2nccc3cc(CNC[C@@H]4CCC(=O)N4)cnc23)c1C [Example 74, (S,Z)-4-(2-(6-(2-(2,2′-dimethyl-3′-((3-((((5-oxopyrrolidin-2-yl)methyl)amino)methyl)-1,7-naphthyridin-8-yl)amino)-[1,1′-biphenyl]-3-yl)-1-fluorovinyl)-3,4-dihydro-2,7-naphthyridin-2(1H)-yl)ethyl)bicyclo [2.2.1]heptane-1-carboxylic acid] |  |
| 946 nM | C[C@@H](O)CN1CCc2cc(/C(F)=C/c3cccc(-c4cccc(Nc5nccc6cc(CN[C@H](CO)C(=O)O)cnc56)c4Cl)c3Cl)ncc2C1 [Example 70, ((8-((2,2′-dichloro-3′-((Z)-2-fluoro-2-(7-((R)-2-hydroxypropyl)-5,6,7,8-tetrahydro-2,7-naphthyridin-3-yl)vinyl)-[1,1′-biphenyl]-3-yl)amino)-1,7-naphthyridin-3-yl)methyl)-D-serine] |  |
| 504 nM | O=C1CC[C@@H](CNCc2cnc3c(Nc4cccc(-c5cccc(NC(=O)c6cc7c(cn6)CN(CC68CCC(C(=O)O)(CC6)C8)CC7)c5Cl)c4Cl)nccc3c2)N1 [Example 78, (S)-4-((6-((2,2′-dichloro-3′-((3-((((5-oxopyrrolidin-2-yl)methyl)amino)methyl)-1,7-naphthyridin-8-yl)amino)-[1,1′-biphenyl]-3-yl)carbamoyl)-3,4-dihydro-2,7-naphthyridin-2(1H)-yl)methyl)bicyclo[2.2.1] heptane-1-carboxylic acid] |  |
| 381 nM | CC(C)N1CCc2cc(C(=O)Nc3cccc(-c4cccc(NC(=O)c5ccc6c(n5)CCN(CCC57CCC(C(=O)O)(CC5)C7)C6)c4Cl)c3Cl)ncc2C1 [Example 69, 4-(2-(2-((2,2′-dichloro-3′-(7-isopropyl-5,6,7,8-tetrahydro-2,7-naphthyridine-3-carboxamido)-[1,1′-biphenyl]-3-yl)carbamoyl)-7,8-dihydro-1,6-naphthyridin-6(5H)-yl)ethyl)bicyclo[2.2.1]heptane-1-carboxylic acid] |  |

— patent US12552811B2, “Immunosuppressant, and preparation method therefor and use thereof” (Abbisko Therapeutics Co., Ltd., priority 2020, dated 2026)
